Consider two molecules from US20100311756A1, “METHODS FOR DELAYING THE PROGRESSION OF AT LEAST ONE OF CARDIAC HYPERTROPHY, CARDIAC REMODELING OR LEFT VENTRICULAR FUNCTION OR THE ONSET OF HEART FAILURE IN SUBJECTS IN NEED OF TREATMENT THEREOF” (TAKEDA PHARMACEUTICALS NORTH AMERICA, INC., priority 2009, published 2010).

Assay [1] concerns post-myocardial infarction rabbits. As to the kind of experiment: Chronic xanthine oxidase inhibition following myocardial infarction (permanent coronary artery ligation) in rabbits. It counts as in vivo. The conditions noted are these: for Heart Weight / Heart/Body Weight Ratio: Day 49; for EDV / EF (ejection fraction) / LVIDd / LVIDs / LVPWd / LVPWs / SF (shortening fraction): baseline (Day 0, pre-surgery, before dosing); for Ejection fraction (percent change from baseline) versus vehicle/control / Shortening fraction (percent change from baseline) versus vehicle/control: delayed treatment (from Day 22). An excerpt:
• Animals Male New Zealand white rabbits (1-2 kg; Clerco Research Farms, Cincinnati, Ohio, USA) were housed in separate cages in an environmentally controlled facility. The animals were subjected to circadian light-dark cycles, maintained on standard rabbit chow (2030C, Harlan Teklad, Madison, Wis., USA) and provided water ad libitum.
The procedures used in this study were reviewed and approved by the Institutional Animal Care and Use Committee (IACUC) of QTest Labs for compliance with regulations and current accepted practices. All applicable sections of the Final Rules of the Animal Welfare Act regulations (Section 9 CFR) and the Public Health Service Policy on Humane Care and Use of Laboratory Animals (OPRR, NIH, 1986) were followed. At the end of the study, all animals were humanely euthanized in accordance with accepted guidelines of the American Veterinary Medical Association (See, American Veterinary Medicine Association (AVMA), 2000 Report of the AVMA Panel on Euthanasia, The Journal of the American Veterinary Medical Association, 218(5):669-696 (2001)). • Drugs Febuxostat and allopurinol (Sigma-Aldrich, St. Louis, Mo., USA) were each formulated as a suspension in 0.5% methylcellulose (Sigma-Aldrich, St. Louis, Mo.) as the vehicle. […] Allopurinol was given orally at 60 mg/kg. […] The rabbits were anesthetized with an intramuscular injection of ketamine (35 mg/kg)/xylazine (5 mg/kg) and pre-surgery enrofloxacin (12 mg/kg). Isoflurane (1-2%) was given during the surgery as required to maintain a deep level of anesthesia and the animals were allowed to breathe 100% oxygen. A limb lead electrocardiogram (ECG) was obtained to monitor sinus rhythm, heart rate, and J-point deviation. The rabbit was placed in dorsal recumbency, and the sternum was exposed by blunt dissection and then incised with scissors. […] Myocardial ischemia was confirmed by regional cyanosis of the myocardial surface and ST-segment elevation on the ECG. The sternum was closed, leaving the pericardial sac as it was. The muscle layers, subcutaneous layer and skin were then closed. Ketofen (1 mg/kg) and buprenorphine (0.03 mg/kg/8 hour) were administered subcutaneously, and the rabbits were placed on a heating pad, covered with a towel, and observed continuously until awake. Post-operative medications given subcutaneously to the rabbits included enrofloxacin (12 mg/kg, b.i.d.), ketofen (0.03 mg/kg, b.i.d.), and buprenorphine ([…], t.i.d. to q.i.d.) for 1 to 3 days as needed. • Experimental Procedures Rabbits were surgically altered (Day 0) to produce MI-induced heart failure and assigned to one of four treatment groups: the vehicle/control group (n=8) received vehicle for 49 consecutive days (7 weeks), the febuxostat/early treatment group (n=8) received febuxostat (10 mg/kg) for 49 consecutive days (7 weeks), the febuxostat/delayed treatment group (n=7) received vehicle for 21 consecutive days (3 weeks) and then febuxostat (10 mg/kg) starting on Day 22 (3 weeks post-surgery) for 28 consecutive days (4 weeks), and the allopurinol/delayed treatment group (n=8) received vehicle for 21 consecutive days and then allopurinol (60 mg/kg) starting on Day 22 (3 weeks post-surgery) for 28 consecutive days (4 weeks). All treatments were started on Day 1 (i.e. the day after surgery) and administered by oral gavage (2 mL/kg). The animals were fasted overnight prior to each day of dosing.
On Day 0 (baseline, pre-surgery), and on Days 21 (end of week 3) and 49 (end of week 7) at approximately one hour after dosing, the rabbits were sling restrained for ECG acquisition.

Assay [2] has as its system enzymes involved in purine and pyrimidine metabolism. The conditions noted are these: Takano et al., Life Sciences 2005; cited from earlier work.
The mark [3] stands for this setting: delayed treatment: vehicle 21 days then oral FBS 10 mg/kg/day or AL 60 mg/kg/day for 28 days.
[4] abbreviates: early treatment: FBS 10 mg/kg/day oral for 49 days from 1 day after coronary occlusion.
Where [5] appears, read: early treatment from one day after ligation, Day 21, still apparent on Day 49.

As to `Oc1ncnc2[nH]ncc12` [allopurinol], in assay [1] (setting [3]), the “Heart Weight” value amounted to 6.59 ± 0.30 g and the “Heart/Body Weight Ratio” value was determined as 0.24 ± 0.01%. Moreover, in assay [1] (delayed treatment group), the EDV is given as 2.21 ± 0.21 mL, the “EF (ejection fraction)” value is listed as 74 ± 1.9%, the LVIDd is 1.29 ± 0.05 cm and the LVIDs was 0.77 ± 0.03 cm. In addition, in assay [1] (delayed treatment group), the LVPWd is 0.31 ± 0.02 cm, the LVPWs was 0.46 ± 0.02 cm and the “SF (shortening fraction)” value came to 40 ± 1.7%. In addition, in assay [1] (Days 21 and 49), the “Ejection fraction (percent change from baseline) versus vehicle/control” value is reported as “not significantly different” and the “Shortening fraction (percent change from baseline) versus vehicle/control” value is “not significantly different”. Further, in assay [2], the “Cross-inhibition on other purine and pyrimidine metabolism enzymes such as purine nucleoside phosphorylase and orotidine-5′-monophosphate decarboxylase” value is “cross-inhibition”.

For the molecule `Cc1nc(-c2ccc(OCC(C)C)c(C#N)c2)sc1C(=O)O` [febuxostat, 2-[3-cyano-4-(2-methylpropoxy)phenyl]-4-methylthiazole-5-carboxylic acid], in assay [1] (setting [3]), the “Heart Weight” value was found to be 6.65 ± 0.27 g and the “Heart/Body Weight Ratio” value came out at 0.28 ± 0.01%. In addition, in assay [1] (setting [4]), the “Heart Weight” value was “small trend toward a lower” and the “Heart/Body Weight Ratio” value was found to be 0.25 ± 0.01%. In assay [1] (early treatment: FBS 10 mg/kg/day oral for 49 days from 1 day after coronary occlusion, listed as FBS), the “Heart Weight” value came out at 6.38 ± 0.19 g. In addition, in assay [1] (delayed treatment group), the EDV was determined as 1.42 ± 0.13 mL, the “EF (ejection fraction)” value is 71 ± 1.7%, the LVIDd was found to be 1.11 ± 0.04 cm and the LVIDs stood at 0.70 ± 0.02 cm. In addition, in assay [1] (delayed treatment group), the LVPWd is 0.32 ± 0.02 cm, the LVPWs is listed as 0.44 ± 0.02 cm and the “SF (shortening fraction)” value was 36 ± 1.2%. In assay [1] (early treatment group), the EDV is listed as 1.94 ± 0.25 mL, the “EF (ejection fraction)” value came to 68 ± 1.8 %, the LVIDd is 1.25 ± 0.04 cm and the LVIDs was 0.82 ± 0.03 cm. Moreover, in assay [1] (early treatment group), the LVPWd is recorded as 0.26 ± 0.02 cm, the LVPWs came out at 0.49 ± 0.02 cm and the “SF (shortening fraction)” value was found to be 34 ± 1.4 %. Moreover, in assay [1] (Days 21 and 49), the “Ejection fraction (percent change from baseline) versus vehicle/control” value is given as “not significantly different” and the “Shortening fraction (percent change from baseline) versus vehicle/control” value is “not significantly different”. Further, in assay [1] (setting [5]), the “Reduction of ejection fraction (percent change from baseline) versus vehicle/control” value was “significantly lessened” and the “Reduction of shortening fraction (percent change from baseline) versus vehicle/control” value is listed as “significantly lessened”. Besides, in assay [1] (early treatment, Day 21), the “Increase in LVIDd versus vehicle/control” value is on record as “less of an increase” and the “Increase in end diastolic volume versus vehicle/control” value is reported as “less of an increase”. Moreover, in assay [1] (early treatment, Day 21, reaching statistical significance), the “Increase in LVIDs versus vehicle/control” value is on record as “less of an increase”. Also, the “Left ventricular posterior wall dimension during diastole, change from baseline” value in assay [1] (early treatment, Days 21 and 49) is listed as “no reduction”. Further, the “Cross-inhibition on other purine and pyrimidine metabolism enzymes such as purine nucleoside phosphorylase and orotidine-5′-monophosphate decarboxylase” value in assay [2] was “avoids the cross-inhibition”.
